Test results reported in patent US11642359B2, “Nutritional composition for improving intestinal barrier integrity, preparation of the composition and method of treatment” (priority 2018, dated 2023).

Test system: alpha-1 antitrypsin (A1AT) in the gut wash
Experiment: A1AT in the gut wash by ELISA as marker of intestinal permeability / barrier disruption in rotavirus-infected suckling rats
Assay type: in vivo, rat
Details: compared to both the RV and REF groups (p<0.05), 3rd day of the diarrheal period (peak of diarrhea)
Description: Newborn rats were distributed into five groups of 24 animals each: the reference (REF) group, rotavirus-infected (RV) group, and 3 rotavirus-infected groups supplemented with: a) a mixture of scGOS and lcFOS (RV+GOS/FOS group); b) 2′-FL (RV+2′-FL group); and c) both scGOS/lcFOS and 2′-FL (RV+GOS/FOS+2′-FL group).
Suckling rats were orally administered once daily with the same normalized volume/body weight of all products (4.5 μL/g/day), from the second to the sixteenth day of life, corresponding to the strict lactation period. The RV+GOS/FOS group was supplemented with 0.8 g of scGOS/lcFOS/100 g of body weight. The RV+2′-FL group was supplemented with 0.2 g of 2′-FL/100 g of body weight. The RV+GOS/FOS+2′-FL group received both products at the same doses as when given separately and maintaining the volume of administration (4.5 μL/g/day). The REF and RV groups were administered with a matched volume of water. […]
The quantification of A1AT in the gut wash, as a marker of intestinal permeability, was performed with the rat SERPINA1/Alpha 1 Antitrypsin ELISA kit (LifeSpan Biosciences Inc., Seattle, Wash., USA) following the manufacturer's instructions. […]

For 2′-fucosyllactose [2′-FL], the “concentration of A1AT in the gut wash” value was “reduced” and the “concentration of A1AT in the gut wash” value (listed as 2′-fucosyllactose) was “significant reduction”.
